# ChEMBL document CHEMBL5625218, “An overview of limonoid synthetic derivatives as promising bioactive molecules” (Eur J Med Chem, 2023)
# How the values were obtained:
# Tobacco mosaic virus [1] = assay: Antiviral activity against TMV assessed as inactivation effect by measuring inhibition rate at 0.5 mg/ml measured after 72 hrs relative to control; format: functional; design: scale not given: the % may be the effect or the level left
# Tobacco mosaic virus [2] = assay: Antiviral activity against TMV assessed as curative effect by measuring inhibition rate at 0.5 mg/ml measured after 72 hrs relative to control; format: functional; design: scale not given: the % may be the effect or the level left
# Tobacco mosaic virus [3] = assay: Antiviral activity against TMV assessed as protection effect by measuring inhibition rate at 0.5 mg/ml measured after 72 hrs relative to control; format: functional; design: scale not given: the % may be the effect or the level left
# Staphylococcus aureus [4] = assay: Antibacterial activity against methicillin-resistant Staphylococcus aureus 18032913 assessed as reduction in bacterial growth incubated for 24 hrs by CLSI based Mueller-Hinton broth assay; format: functional
# Staphylococcus aureus [5] = assay: Antibacterial activity against methicillin-resistant Staphylococcus aureus 15012406 assessed as reduction in bacterial growth incubated for 24 hrs by CLSI based Mueller-Hinton broth assay; format: functional
# Staphylococcus aureus [6] = assay: Antibacterial activity against Staphylococcus aureus ATCC 25923 assessed as reduction in bacterial growth incubated for 24 hrs by CLSI based Mueller-Hinton broth assay; format: functional
# Staphylococcus aureus [7] = assay: Antibacterial activity against methicillin-resistant Staphylococcus aureus 15019301 assessed as reduction in bacterial growth incubated for 24 hrs by CLSI based Mueller-Hinton broth assay; format: functional
# Staphylococcus aureus [8] = assay: Antibacterial activity against methicillin-resistant Staphylococcus aureus 17045463 assessed as reduction in bacterial growth incubated for 24 hrs by CLSI based Mueller-Hinton broth assay; format: functional
# Mus musculus [9] = assay: Antinociceptive activity in ip dosed mouse assessed as inhibition of acetic acid-induced abdominal constrictions by writhing test at 70 mg/ml relative to control; format: functional; design: scale not given: the % may be the effect or the level left
# Mus musculus [10] = assay: Anti-inflammatory activity in mouse model of xylene-induced auricle edema assessed as inhibition of ear swelling at 70 mg/ml, IG pre-treated for 1 hr followed by xylene addition and measured after 1 hr relative to control; format: functional; design: scale not given: the % may be the effect or the level left; conditions: time 2 hrs
# ES-2 = assay: Anticancer activity against human ES2 cells assessed as reduction in cell viability incubated for 72 hrs by Alamar Blue assay; format: functional, cell-based; conditions: ES-2, 72 h
# HepG2 = assay: Anticancer activity against human HepG2 cells assessed as reduction in cell viability incubated for 72 hrs by Alamar Blue assay; format: functional, cell-based; conditions: HepG2, 72 h
# HOS = assay: Anticancer activity against human HOS cells assessed as reduction in cell viability incubated for 72 hrs by Alamar Blue assay; format: functional, cell-based
# MDA-MB-231 = assay: Anticancer activity against human MDA-MB-231 cells assessed as reduction in cell viability incubated for 72 hrs by Alamar Blue assay; format: functional, cell-based; conditions: MDA-MB-231, 72 h
# A549 = assay: Anticancer activity against human A549 cells assessed as reduction in cell viability incubated for 72 hrs by Alamar Blue assay; format: functional, cell-based; conditions: A549, 72 h
# A 172 = assay: Anticancer activity against human A-172 cells assessed as reduction in cell viability incubated for 72 hrs by Alamar Blue assay; format: functional, cell-based; conditions: A 172, 72 h
# HCT-116 = assay: Anticancer activity against human HCT-116 cells assessed as reduction in cell viability incubated for 72 hrs by MTT assay; format: functional, cell-based; conditions: HCT-116, 72 h
# Plasmodium falciparum = assay: Antiplasmodial activity against Plasmodium falciparum W2 infected in human erythrocytes assessed as reduction in parasite growth incubated for 48 hrs by YOYO-1 dye based flow cytometric analysis; format: functional, organism-based; conditions: W2, 48 h
# Cryptococcus neoformans = assay: Antimicrobial activity Cryptococcus neoformans ATCC 28952 assessed as reduction in microbial growth incubated for 24 hrs by broth micro dilution method; format: functional
# Candida parapsilosis = assay: Antimicrobial activity Candida parapsilosis ATCC 22019 assessed as reduction in microbial growth incubated for 24 hrs by broth micro dilution method; format: functional; conditions: Lodderomyces parapsilosis
# [11] = Antimicrobial activity Cryptococcus gattii VGI ATCC 2601 assessed as reduction in microbial growth incubated for 24 hrs by broth micro dilution method; format: functional
# Diutina rugosa = assay: Antimicrobial activity Candida rugosa DSM 2031 assessed as reduction in microbial growth incubated for 24 hrs by broth micro dilution method; format: functional
# Candida tropicalis = assay: Antimicrobial activity against Candida tropicalis ATCC 18803 assessed as reduction in microbial growth incubated for 24 hrs by broth micro dilution method; format: functional
# Candida albicans = assay: Antimicrobial activity against Candida albicans ATCC 10231 assessed as reduction in microbial growth incubated for 24 hrs by broth micro dilution method; format: functional
# [12] = target: Voltage-gated inwardly rectifying potassium channel KCNH2 (Homo sapiens, UniProt Q12809); assay: Inhibition of hERG; format: toxicity
# Voltage-gated inwardly rectifying potassium channel KCNH2, sequence (Q12809 whole entry): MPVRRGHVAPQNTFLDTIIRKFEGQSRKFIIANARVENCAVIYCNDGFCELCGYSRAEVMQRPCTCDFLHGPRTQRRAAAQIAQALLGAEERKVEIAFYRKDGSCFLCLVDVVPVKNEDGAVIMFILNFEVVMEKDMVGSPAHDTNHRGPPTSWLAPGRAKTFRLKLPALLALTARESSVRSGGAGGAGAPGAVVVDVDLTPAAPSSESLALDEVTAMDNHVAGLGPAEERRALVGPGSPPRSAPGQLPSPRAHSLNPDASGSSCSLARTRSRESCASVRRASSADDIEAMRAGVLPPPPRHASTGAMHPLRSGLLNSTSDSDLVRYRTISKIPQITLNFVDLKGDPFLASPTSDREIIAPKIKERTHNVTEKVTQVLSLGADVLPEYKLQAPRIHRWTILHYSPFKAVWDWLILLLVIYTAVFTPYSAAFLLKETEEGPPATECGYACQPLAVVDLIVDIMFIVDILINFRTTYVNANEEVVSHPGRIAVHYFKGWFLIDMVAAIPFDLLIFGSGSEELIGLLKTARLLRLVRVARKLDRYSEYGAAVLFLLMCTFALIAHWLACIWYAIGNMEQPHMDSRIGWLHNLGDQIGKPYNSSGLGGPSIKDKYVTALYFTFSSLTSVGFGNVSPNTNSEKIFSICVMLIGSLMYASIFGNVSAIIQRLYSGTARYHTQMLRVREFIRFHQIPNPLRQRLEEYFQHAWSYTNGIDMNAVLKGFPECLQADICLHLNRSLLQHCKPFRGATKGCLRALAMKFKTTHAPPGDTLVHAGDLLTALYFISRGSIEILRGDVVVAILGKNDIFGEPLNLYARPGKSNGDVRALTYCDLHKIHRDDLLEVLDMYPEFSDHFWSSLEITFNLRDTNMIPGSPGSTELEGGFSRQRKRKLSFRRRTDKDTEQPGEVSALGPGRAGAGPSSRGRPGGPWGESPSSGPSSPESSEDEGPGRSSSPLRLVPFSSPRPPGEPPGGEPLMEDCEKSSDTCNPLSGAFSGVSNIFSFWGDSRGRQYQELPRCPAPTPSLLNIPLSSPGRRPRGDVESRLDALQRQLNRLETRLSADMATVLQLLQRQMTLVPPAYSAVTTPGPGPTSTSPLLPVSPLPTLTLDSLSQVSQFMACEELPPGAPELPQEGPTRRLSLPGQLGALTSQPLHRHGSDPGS
compound,measurement,setting,value
CC1(C)O[C@H]2CC(=O)OC[C@]23[C@H]2CC[C@@]4(C)[C@H](c5ccoc5)OC(=O)[C@H]5O[C@]54[C@]2(C)OC(=O)C[C@@H]13,Activity,Tobacco mosaic virus [1],44.8%
same,Activity,Tobacco mosaic virus [2],13.1%
same,Activity,Tobacco mosaic virus [3],23.6%
CC(=O)O[C@@H](c1ccoc1)[C@@H]1CCC[C@H](C)C1=O,MIC50,Staphylococcus aureus [4],64 mg/L
same,MIC50,Staphylococcus aureus [5],128 mg/L
same,MIC50,Staphylococcus aureus [6],12 mg/L
same,MIC50,Staphylococcus aureus [7],64 mg/L
same,MIC50,Staphylococcus aureus [8],128 mg/L
CC1(C)O[C@H]2CC(=O)OC[C@]23[C@H]2CC[C@@]4(C)[C@H](c5ccoc5)OC(=O)[C@H]5O[C@]54[C@]2(C)[C@@H](OC(=O)C/C=C/c2ccccc2)C[C@@H]13,Activity,Tobacco mosaic virus [1],65.7%
same,Activity,Tobacco mosaic virus [2],41.7%
same,Activity,Tobacco mosaic virus [3],29.3%
CC1(C)O[C@H]2CC(=O)OC[C@]23[C@H]2CC[C@@]4(C)[C@H](c5ccoc5)OC(=O)[C@H]5O[C@]54[C@]2(C)[C@@H](NC(=O)CCN2CCOCC2)C[C@@H]13.Cl,Activity,Mus musculus [9],57.35%
same,Activity,Mus musculus [10],58.15%
C#CCO[C@H]1C=C(C(C)C)[C@]2(CCCC(=O)O2)[C@H]2CC[C@]3(C)C(=CC(=O)O[C@H]3c3ccoc3)[C@]12C,IC50,ES-2,0.58 µM
same,IC50,HepG2,7.1 µM
same,IC50,HOS,1.61 µM
same,IC50,MDA-MB-231,0.64 µM
same,IC50,A549,2.59 µM
same,IC50,A 172,0.78 µM
same,IC50,HCT-116,1.6 µM
C[C@H]1CCC[C@@H]([C@H](O)c2ccoc2)C1=O,MIC50,Staphylococcus aureus [5],512 mg/L
same,MIC50,Staphylococcus aureus [6],512 mg/L
same,MIC50,Staphylococcus aureus [7],512 mg/L
COC(=O)C[C@H](OC(C)=O)[C@]1(C)[C@H]2CC[C@@]3(C)[C@H](c4ccoc4)OC(=O)[C@H]4O[C@]43[C@]2(C)[C@H](OC(C)=O)C[C@H]1C(C)(C)O,IC50,Plasmodium falciparum,18.3 µM
CC1(C)OC(=O)C=C[C@]2(C)[C@H]3CC[C@@]4(C)[C@H](c5ccoc5)OC(=O)[C@H]5O[C@]54[C@]3(C)OC(=O)C[C@@H]12,Activity,Tobacco mosaic virus [1],56.5%
same,Activity,Tobacco mosaic virus [2],17.5%
same,Activity,Tobacco mosaic virus [3],30%
CC1(C)O[C@@H](CC(=O)NCc2cn(Cc3ccc(Br)cc3)nn2)[C@@]2(CO)[C@H]1CC(=O)[C@@]1(C)C3=CC(=O)O[C@@H](c4ccoc4)[C@]3(C)CC[C@@H]12,MIC,Cryptococcus neoformans,34 µM
same,MIC,Candida parapsilosis,34 µM
same,MIC,[11],34 µM
same,MIC,Diutina rugosa,34 µM
same,MIC,Candida tropicalis,34 µM
same,MIC,Candida albicans,34 µM
CC1(C)O[C@H]2CC(=O)OC[C@@]23[C@H]1C[C@H](NC(=O)CCN1CCOCC1)[C@@]1(C)C2=CC(=O)O[C@@H](c4ccoc4)[C@]2(C)CC[C@@H]13.Cl,Activity,Mus musculus [9],54.3%
same,Activity,Mus musculus [10],24.04%
CC(=O)O[C@H]1CC(=O)OC(C)(C)[C@@H]2C[C@@H](OC(C)=O)[C@]3(C)[C@H](CC[C@@]4(C)[C@H](c5ccoc5)OC(=O)[C@H]5O[C@@]534)[C@@]12C,IC50,Plasmodium falciparum,16.5 µM
CC(=O)O[C@H](c1ccoc1)[C@@H]1CCC[C@H](C)C1=O,MIC50,Staphylococcus aureus [4],64 mg/L
same,MIC50,Staphylococcus aureus [5],128 mg/L
same,MIC50,Staphylococcus aureus [6],12 mg/L
same,MIC50,Staphylococcus aureus [7],64 mg/L
same,MIC50,Staphylococcus aureus [8],128 mg/L
C[C@H]1CCC[C@@H]([C@@H](O)c2ccoc2)C1=O,MIC50,Staphylococcus aureus [5],512 mg/L
same,MIC50,Staphylococcus aureus [6],512 mg/L
same,MIC50,Staphylococcus aureus [7],512 mg/L
CC1(C)O[C@H]2CC(=O)OC[C@]23[C@H]2CC[C@@]4(C)[C@H](c5coc(C(=O)CCCCN6CCOCC6)c5)OC(=O)[C@H]5O[C@]54[C@]2(C)C(=O)C[C@@H]13,IC50,[12],> 100 µM
CC1(C)O[C@H]2CC(=O)OC[C@]23[C@H]2CC[C@]4(C)C(=CC(=O)O[C@H]4c4coc(C(=O)CCl)c4)[C@]2(C)OC(=O)C[C@@H]13,IC50,ES-2,3.65 µM
same,IC50,HepG2,8.45 µM
same,IC50,HOS,3.88 µM
same,IC50,MDA-MB-231,5.53 µM
same,IC50,A549,7.62 µM
same,IC50,A 172,1.71 µM
same,IC50,HCT-116,3.28 µM
CC1(C)O[C@H]2CC(=O)OC[C@]23[C@H]2CC[C@@]4(C)[C@H](c5ccoc5)OC(=O)[C@H]5O[C@]54[C@]2(C)C(=O)C[C@@H]13 [LIMONIN],Activity,Tobacco mosaic virus [1],41.9%
same,Activity,Tobacco mosaic virus [2],5.8%
same,Activity,Tobacco mosaic virus [3],27.4%
CC1(C)OC(=O)C=C[C@]2(C)[C@H]3CC[C@@]4(C)[C@H](c5ccoc5)OC(=O)[C@H]5O[C@]54[C@]3(C)C(=O)C[C@@H]12 [OBACUNONE],Activity,Tobacco mosaic virus [1],35.2%
same,Activity,Tobacco mosaic virus [2],7.7%
same,Activity,Tobacco mosaic virus [3],21.5%
